Data taken from patent publication US9474744B2, “Beta-lactam compounds for treating diabetes” (STEM CELL MEDICINE LTD., priority 2011, dated 2016).
“Also recorded” adds a separate entry of the source.

What was measured:
NOD mice = assay: Development of autoimmune diabetes in NOD mice; assay type: in vivo, mouse
Text: Inbred female Lewis rats and NOD (non-obese diabetic) mice were supplied by the animal breeding center of the Weizmann Institute of Science, Israel, under the supervision of Harlan Laboratories and were used at 2-3 months of age. Experiments were approved by the Institutional Animal Care and Use Committee. Human peripheral blood lymphocytes from healthy donors were obtained from the blood bank of Sheba Medical Center, Tel Hashomer, Israel.
NOD mice spontaneously develop diabetes mellitus similar to type I diabetes in humans. […] The mice were followed for the development of diabetes, marked by blood sugar above 300 mg/dl on 2 measurements.

CD4+ human T cells = assay: Real-time PCR verification of six gene-array genes; assay type: cell-based; details: cDNA from the same RNA as the gene array; normalised to B2M
Procedure: To verify the results of the gene array, we synthesized real-time PCR primers (designed with the […]® probe design software (Roche)). Real-time PCR of 6 selected genes was performed using a […]® (Roche, Basel, Switzerland). RNA was reverse transcribed to cDNA from 1 μg of total RNA, which was then subjected to quantitative RT-PCR performed essentially according to the manufacturer's instructions. Specific primer pairs were used to amplify specific genes in the presence of 3 mM MgCl2. PCR was performed in triplicate in a total volume of 20 μl of […]® HotStart DNA SYBR Green I mix (Roche) containing primer and 5 μl of cDNA. […] Denaturation was performed for 15 s at 95° C., annealing was performed in 60° C., and the extension was performed at 72° C. for 20 s, with fluorescence detection at 72° C. after each cycle. After the final cycle, melting point analyses of all samples were performed within the range of 62-95° C. with continuous fluorescence detection. […]
The Human Autoimmune and Inflammatory Response Gene Array (SuperArray Bioscience corporation, Frederick, Md., USA) was used for analysis of gene expression by the T cells. […] To verify the results detected by the gene array study, a panel of six genes was designed and tested by real-time PCR: CCR4, ACVR2, JAK1, STAT4, TLR2 and NFKBIE. […]

[1] = system: Adjuvant Arthritis (AA) in Lewis rats; assay: Adjuvant arthritis (AA) in rats, IP antibiotic treatment; assay type: in vivo, rat; details: IP 5 mg (25 mg/kg) once every 2 or 3 days from day 12; versus non-injected control

Row | Structure (SMILES) | development of type I diabetes in NOD mice (NOD mice; FIG. 1D) | incidence of diabetes (NOD mice; at 5.7 months, s.c. at weekly intervals, ampicillin 1300 μg or ceftriaxone 675 μg per mouse, blood sugar above 300 mg/dl on 2 measurements, control 60%) | expression of CCR4, ACVR2, JAK1, STAT4, TLR2 and NFKBIE by real-time PCR (CD4+ human T cells) | arthritis scores [1]
1 | CC1(C)S[C@@H]2[C@H](NC(=O)[C@H](N)c3ccccc3)C(=O)N2[C@H]1C(=O)O [ampicillin] | Inhibition of type I diabetes | 30% | – | –
2 | CO/N=C(\C(=O)N[C@@H]1C(=O)N2C(C(=O)O)=C(COC(N)=O)CS[C@H]12)c1ccco1 [cefuroxime] | – | – | suppressed | significantly more severe arthritis scores; also recorded: Exacerbation of adjuvant-induced arthritis
